Legend:
[1] = pKa value was determined; format: physicochemical
[2] = biological target: T1, Potassium voltage-gated channel subfamily A member 5 (Homo sapiens, UniProt P22460); assay: Inhibitory effect against human voltage-gated potassium channel subunit Kv1.5 expressed in Xenopus oocytes; format: cell-based, Oocyte
[3] = biological target: T1, Potassium voltage-gated channel subfamily A member 5; assay: Percent inhibition of human voltage-gated potassium channel subunit Kv1.5 expressed in Xenopus oocytes at 10 uM; format: cell-based; conditions: Oocyte
[4] = Oral bioavailability of compound in rats; format: ADME, organism-based; conditions: rat, in vivo

T1 sequence (P22460 whole entry): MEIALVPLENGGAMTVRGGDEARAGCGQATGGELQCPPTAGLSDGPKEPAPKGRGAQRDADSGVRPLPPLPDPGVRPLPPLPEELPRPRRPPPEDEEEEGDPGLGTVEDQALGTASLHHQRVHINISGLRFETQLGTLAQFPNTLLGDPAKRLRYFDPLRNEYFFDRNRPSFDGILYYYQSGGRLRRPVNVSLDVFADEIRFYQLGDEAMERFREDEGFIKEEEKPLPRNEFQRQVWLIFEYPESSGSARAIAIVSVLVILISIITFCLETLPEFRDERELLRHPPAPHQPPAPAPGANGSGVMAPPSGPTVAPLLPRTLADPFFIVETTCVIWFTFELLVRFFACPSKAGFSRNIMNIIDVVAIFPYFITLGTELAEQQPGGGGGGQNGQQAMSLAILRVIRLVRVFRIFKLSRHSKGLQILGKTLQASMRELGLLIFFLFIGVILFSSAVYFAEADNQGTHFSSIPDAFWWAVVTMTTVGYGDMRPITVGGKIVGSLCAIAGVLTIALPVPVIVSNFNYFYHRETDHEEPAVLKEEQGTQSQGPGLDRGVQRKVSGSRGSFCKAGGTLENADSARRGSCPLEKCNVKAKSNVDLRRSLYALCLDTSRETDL

SMILES	IC50 [2] [µM]	also measured
CC[C@H](NC(=O)c1cc(F)ccc1NS(=O)(=O)c1ccc(Cl)cc1)c1ccccc1	3.8	pKa [1]: 6.5
CC[C@H](NC(=O)c1cc(OCN(C)C)ccc1NS(=O)(=O)c1ccc(C)cc1)c1ccccc1		inhibition [3]: 15%
CC[C@H](NC(=O)c1ccccc1NS(=O)(=O)c1cccnc1)c1ccccc1		inhibition [3]: 36%
CC[C@H](NC(=O)c1cc(C(C)=O)ccc1NS(=O)(=O)c1ccc(C)cc1)c1ccccc1	3.8	
CC[C@H](NC(=O)c1cc(OC)ccc1NS(=O)(=O)c1ccc(C)cc1)c1ccccc1		pKa [1]: 7.5
CC[C@H](NC(=O)c1cc(OCCOC)ccc1NS(=O)(=O)c1ccc(C)cc1)c1ccccc1		inhibition [3]: 46%
Cc1ccc(S(=O)(=O)Nc2ccccc2C(=O)N(Cc2ccccc2)Cc2cccnc2)cc1		bioavailability [4]: 43%
CC[C@H](NC(=O)c1cc(OCC2CC2)ccc1NS(=O)(=O)c1ccc(C)cc1)c1ccccc1		inhibition [3]: 41%
CC[C@H](NC(=O)c1ccccc1NS(=O)(=O)CC)c1ccccc1	10	
CC[C@H](NC(=O)c1ccccc1NS(=O)(=O)c1ccccc1)c1ccccc1	1.3	pKa [1]: 6.9

Continued, in another order:

IC50 [2] [µM]	SMILES	also measured
2.2	Cc1ccc(S(=O)(=O)Nc2ccccc2C(=O)N(Cc2cccnc2)Cc2cccnc2)cc1	
0.6	CC[C@H](NC(=O)c1ccccc1NS(=O)(=O)c1cccc2cccnc12)c1ccccc1	
9	CC[C@H](NC(=O)c1ccccc1NS(=O)(=O)c1cccc2cnccc12)c1ccccc1	
6.7	Cc1ccc(S(=O)(=O)Nc2ccccc2C(=O)NCCc2ccccc2)cc1	
0.7	CC[C@H](NC(=O)c1ccccc1NS(=O)(=O)c1ccc(C)cc1)c1ccccc1	pKa [1]: 7.2
1.6	Cc1ccc(S(=O)(=O)Nc2ccccc2C(=O)NC(c2ccccc2)C2CC2)cc1 (configuration not stated)	
4	CC[C@H](NC(=O)c1ccccc1NS(=O)(=O)c1ccc(C(F)(F)F)cc1)c1ccccc1	pKa [1]: 6.2
5.6	O=C(NCc1ccccc1)c1cc(Cl)ccc1NS(=O)(=O)c1ccc(Cl)cc1	

From ChEMBL document CHEMBL1148261, “Pharmacophore-based search, synthesis, and biological evaluation of anthranilic amides as novel blockers of the Kv1.5 channel” (Bioorg Med Chem Lett, 2004)
